According to PubChem BioAssay (NCI):
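Cells were grown in 96-well plates and exposed to each compound for 48 hours at five concentrations; endpoints were interpolated linearly between bracketing concentrations, or set to the highest concentration if not reached. At the GI50, growth is halved. TGI: concentration producing complete growth inhibition.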

How the values were obtained:
Assay in all cases: NCI tumour cell line growth inhibition, 48 h
786-0 renal = system: 786-0 renal
SNB-75 CNS = system: SNB-75 CNS
SK-OV-3 ovarian = system: SK-OV-3 ovarian
HOP-92 NSCLC = system: HOP-92 NSCLC
EKVX NSCLC = system: EKVX NSCLC
RXF 393 renal = system: RXF 393 renal
UACC-257 melanoma = system: UACC-257 melanoma
SF-295 CNS = system: SF-295 CNS
OVCAR-5 ovarian = system: OVCAR-5 ovarian
COLO 205 colon = system: COLO 205 colon
SF-268 CNS = system: SF-268 CNS
UO-31 renal = system: UO-31 renal
KM12 colon = system: KM12 colon
NCI-H522 lung = system: NCI-H522 lung
TK-10 renal = system: TK-10 renal
SK-MEL-5 melanoma = system: SK-MEL-5 melanoma
SR leukemia = system: SR leukemia
MDA-MB-435 = system: MDA-MB-435
NCI-H23 lung = system: NCI-H23 lung
T-47D breast = system: T-47D breast
SW-620 colon = system: SW-620 colon
RPMI-8226 leukemia = system: RPMI-8226 leukemia
MALME-3M melanoma = system: MALME-3M melanoma
SNB-19 CNS = system: SNB-19 CNS
NCI/ADR-RES ovarian = system: NCI/ADR-RES ovarian
M14 melanoma = system: M14 melanoma
OVCAR-3 ovarian = system: OVCAR-3 ovarian
UACC-62 melanoma = system: UACC-62 melanoma
SK-MEL-2 melanoma = system: SK-MEL-2 melanoma
MDA-MB-231 breast = system: MDA-MB-231 breast
MDA-N = system: MDA-N
HCT-15 colon = system: HCT-15 colon
HCT-116 colon = system: HCT-116 colon
HT29 colon = system: HT29 colon
MCF7 breast = system: MCF7 breast
ACHN renal = system: ACHN renal
BT-549 breast = system: BT-549 breast
HL-60(TB) leukemia = system: HL-60(TB) leukemia
SN12C renal = system: SN12C renal
HCC-2998 colon = system: HCC-2998 colon
PC-3 prostate = system: PC-3 prostate
SK-MEL-28 melanoma = system: SK-MEL-28 melanoma
HOP-62 NSCLC = system: HOP-62 NSCLC
A498 renal = system: A498 renal
SF-539 CNS = system: SF-539 CNS
A549 NSCLC = system: A549 NSCLC
DU-145 prostate = system: DU-145 prostate
CAKI-1 renal = system: CAKI-1 renal
K-562 leukemia = system: K-562 leukemia
NCI-H460 lung = system: NCI-H460 lung
U251 CNS = system: U251 CNS
LOX IMVI melanoma = system: LOX IMVI melanoma
HS 578T breast = system: HS 578T breast
OVCAR-8 ovarian = system: OVCAR-8 ovarian
CCRF-CEM leukemia = system: CCRF-CEM leukemia
MOLT-4 leukemia = system: MOLT-4 leukemia
IGROV1 ovarian = system: IGROV1 ovarian
NCI-H226 lung = system: NCI-H226 lung
OVCAR-4 ovarian = system: OVCAR-4 ovarian

Cc1nc2ccccc2nc1NNc1ccccc1
TGI (786-0 renal): > 92.1 µM | TGI (SNB-75 CNS): > 84.9 µM | GI50 (SK-OV-3 ovarian): 24.8 µM | TGI (SK-OV-3 ovarian): > 100 µM | TGI (HOP-92 NSCLC): 57 µM | TGI (EKVX NSCLC): 68.2 µM | GI50 (RXF 393 renal): 18.6 µM | TGI (RXF 393 renal): 78.7 µM | TGI (UACC-257 melanoma): 74.3 µM | TGI (SF-295 CNS): > 93.6 µM | TGI (OVCAR-5 ovarian): > 84.4 µM | TGI (COLO 205 colon): 1.03 µM | TGI (SF-268 CNS): > 100 µM | TGI (UO-31 renal): > 86.5 µM | TGI (KM12 colon): 63.4 µM | TGI (NCI-H522 lung): > 88.4 µM | TGI (TK-10 renal): 98.7 µM | TGI (SK-MEL-5 melanoma): 31.5 µM | TGI (SR leukemia): 74.5 µM | TGI (MDA-MB-435): 41.7 µM | TGI (NCI-H23 lung): 77.2 µM | TGI (T-47D breast): 46.9 µM | TGI (SW-620 colon): > 74.9 µM | TGI (RPMI-8226 leukemia): 41 µM | TGI (MALME-3M melanoma): 69.5 µM | TGI (SNB-19 CNS): > 100 µM | TGI (NCI/ADR-RES ovarian): 75.8 µM | TGI (M14 melanoma): 64.8 µM | TGI (OVCAR-3 ovarian): 70.4 µM | TGI (UACC-62 melanoma): 43.4 µM | TGI (SK-MEL-2 melanoma): > 80.8 µM | TGI (MDA-MB-231 breast): 70.7 µM | TGI (MDA-N): 48.9 µM | TGI (HCT-15 colon): > 82.6 µM | TGI (HCT-116 colon): > 100 µM | TGI (HT29 colon): 18.7 µM | TGI (MCF7 breast): > 100 µM | TGI (ACHN renal): 85.9 µM | TGI (BT-549 breast): 70 µM | TGI (HL-60(TB) leukemia): 58.8 µM | TGI (SN12C renal): 72.9 µM | TGI (HCC-2998 colon): > 100 µM | TGI (PC-3 prostate): > 84.4 µM | TGI (SK-MEL-28 melanoma): > 96.7 µM | TGI (HOP-62 NSCLC): 86.6 µM | TGI (A498 renal): > 94.5 µM | TGI (SF-539 CNS): > 96.2 µM | TGI (A549 NSCLC): > 95.9 µM | TGI (DU-145 prostate): > 86.1 µM | TGI (CAKI-1 renal): > 100 µM | TGI (K-562 leukemia): 74.5 µM | TGI (NCI-H460 lung): > 88.7 µM | TGI (U251 CNS): > 93.5 µM | TGI (LOX IMVI melanoma): 70.7 µM | TGI (HS 578T breast): > 95.1 µM | TGI (OVCAR-8 ovarian): 77.8 µM | TGI (CCRF-CEM leukemia): 78.7 µM | GI50 (MOLT-4 leukemia): 12.1 µM | TGI (MOLT-4 leukemia): 40.7 µM | TGI (IGROV1 ovarian): 73.3 µM | TGI (NCI-H226 lung): 85.7 µM | TGI (OVCAR-4 ovarian): > 87.8 µM

C=C(Cl)C(Cl)(CBr)CCCC(C)(C)Cl (stereo unspecified)
TGI (786-0 renal): 18 µM | TGI (SNB-75 CNS): 37.6 µM | TGI (SK-OV-3 ovarian): > 100 µM | TGI (HOP-92 NSCLC): 6.33 µM | TGI (EKVX NSCLC): 32.6 µM | TGI (RXF 393 renal): > 100 µM | TGI (UACC-257 melanoma): 13.8 µM | TGI (SF-295 CNS): 19.8 µM | TGI (OVCAR-5 ovarian): 33 µM | TGI (COLO 205 colon): 20.8 µM | TGI (SF-268 CNS): 38.3 µM | TGI (UO-31 renal): 29.3 µM | TGI (KM12 colon): 3.6 µM | TGI (NCI-H522 lung): 28.1 µM | TGI (TK-10 renal): 4.54 µM | TGI (SK-MEL-5 melanoma): > 90.8 µM | TGI (SR leukemia): > 100 µM | TGI (MDA-MB-435): > 73.3 µM | TGI (NCI-H23 lung): > 100 µM | TGI (T-47D breast): 4.15 µM | TGI (SW-620 colon): 41.4 µM | TGI (RPMI-8226 leukemia): 4.03 µM | TGI (MALME-3M melanoma): > 55.1 µM | TGI (SNB-19 CNS): 30.1 µM | TGI (NCI/ADR-RES ovarian): > 74.1 µM | TGI (M14 melanoma): > 100 µM | TGI (OVCAR-3 ovarian): 6.51 µM | TGI (UACC-62 melanoma): 42.3 µM | TGI (SK-MEL-2 melanoma): 32.3 µM | TGI (MDA-MB-231 breast): > 59 µM | TGI (MDA-N): > 79.5 µM | TGI (HCT-15 colon): 70.8 µM | TGI (HCT-116 colon): 30.8 µM | TGI (HT29 colon): 4.28 µM | TGI (MCF7 breast): 20.2 µM | TGI (ACHN renal): 19.6 µM | TGI (BT-549 breast): > 100 µM | TGI (HL-60(TB) leukemia): 3.22 µM | TGI (SN12C renal): > 100 µM | TGI (HCC-2998 colon): 29.5 µM | TGI (PC-3 prostate): 9.36 µM | TGI (SK-MEL-28 melanoma): 25.4 µM | TGI (HOP-62 NSCLC): 9.16 µM | TGI (A498 renal): 33.9 µM | TGI (SF-539 CNS): 4.93 µM | TGI (A549 NSCLC): 32.1 µM | TGI (DU-145 prostate): 23.5 µM | TGI (CAKI-1 renal): 3.8 µM | TGI (K-562 leukemia): > 66.8 µM | TGI (NCI-H460 lung): 17.7 µM | TGI (U251 CNS): 4.16 µM | TGI (LOX IMVI melanoma): 40.9 µM | TGI (HS 578T breast): 12.7 µM | TGI (OVCAR-8 ovarian): 52.6 µM | TGI (CCRF-CEM leukemia): > 62.3 µM | TGI (MOLT-4 leukemia): > 100 µM | TGI (IGROV1 ovarian): > 75.3 µM | TGI (NCI-H226 lung): > 100 µM | TGI (OVCAR-4 ovarian): 17 µM
